Values quoted from earlier work as cited in US20110294763A1, “TRANSDERMAL DELIVERY OF DICOLFENAC, CARBAMAZEPINE AND BENZYDAMINE” (priority 2009, published 2011).

Solubility in water: insoluble
Compound: CN(C)CCCOc1nn(Cc2ccccc2)c2ccccc12 [Benzydamine base]
